Series [1] can be described thus: Hygroscopicity determination (humidity chambers). It is filed as physicochemical. Conditions: 75% relative humidity, 25° C., 8 hours. As to the method:
The hygroscopicity profiles for a sample from each of vials 1-5, as well as cis-itraconazole free base, were determined by exposing a sample from each of vials 1-5 to four different environments of varying relative humidity (namely, 0%, 30%, 57%, and 75%), and incubating the samples in that environment for about 8 hours at room temperature (20-25° C.). The humidity chambers consisted of desiccators with desiccants/salt baths in the bottom, above which the open vials containing samples were suspended.
The relative hygroscopicity of each sample was determined using methods well known to one skilled in the pharmaceutical arts as reported in “Pharmaceutical Preformulation & Formulation: A Practical Guide From Candidate Drug Selection to Commercial Dosage Form,” Ed. Mark Gibson, published by IHS Health Group Co, p. 49 (2001), which is incorporated herein by reference in its entirety.

The conditions of series [2]: cited from earlier work.
Series [3] is described as follows: Solubility in pH 1 buffer (HPLC-UV). It is filed as physicochemical.
Method: Beginning with the longest time point, pH 1 buffer (1 N HCl adjusted to pH 1 using 1 N NaOH) was added to each of the wells containing samples until completion of the shortest time points. The samples were vigorously stirred throughout the experiment. At the end of the assay, the solution and solid states of all the samples were separated by centrifugation in a polyvinylidene fluoride 96-well filter plate for 2 minutes at 500 xg.
Approximately 30 μl of solution was collected from the solution state of each sample and diluted in 120 μl of methanol in glass vials. Aluminum caps were crimped on the vial tops to prevent evaporation of methanol.
Series [4] in a line: Physical form after incubation in pH 1 buffer (PXRD). It is filed as physicochemical. The settings on record: 2 hours, room temperature. As to the method: 70 μl of pH 1 buffer (1 N HCl adjusted to pH 1 using 1 N NaOH) was added to the same well. The sample was incubated at room temperature with vigorous mixing for 2 hours. At the end of the assay, the 384 well plate was centrifuged for 2 minutes at 500 xg and the supernatant was removed by aspiration.
The remaining solid state was analyzed by X-ray powder diffraction in a borosilicate tube, but otherwise using the same equipment, software, procedures, and parameters described in Example 1.

Series [5] in a line: Solubility in THF (observation during synthesis). The settings on record: up to 70° C. It is filed as physicochemical. From the text:
Thereafter, the vials were removed from the oven, the caps from all the bottles were removed, and the samples were allowed to evaporate in air under ambient conditions. Once significant amounts of solids were present in a sample, the remaining liquid in the sample was removed by pipetting out the liquid phase and using suction filtration with Whatman filter paper to rescue any solid that may have been dispersed in the liquid phase. The remaining solid in the liquid phase and the filtrate were dried in the vacuum oven (VWR Scientific, Model # 1400E) under vacuum for at least 12 hours. With regard to vial 3, the solid crashed out of solution as soon as the acid was added and never went into solution even at 70° C.; however, the solid in the sample was harvested in the same manner as the other samples.

In the case of `CCC(C)n1ncn(-c2ccc(N3CCN(c4ccc(OCC5COC(Cn6cncn6)(c6ccc(Cl)cc6Cl)O5)cc4)CC3)cc2)c1=O.O=C(O)C(O)C(O)C(=O)O` (racemic) [cis-itraconazole DL-tartrate], the relative hygroscopicity result in series [1] is “slightly hygroscopic (greater than 0.2% and less than 2% weight loss after incubation in 75% relative humidity at 25 °C for 8 hours)”.

For `CCC(C)n1ncn(-c2ccc(N3CCN(c4ccc(OC[C@H]5CO[C@](Cn6cncn6)(c6ccc(Cl)cc6Cl)O5)cc4)CC3)cc2)c1=O` (mixture of isomers) [cis-itraconazole free base, (±)cis-4-[4-[4-[4-[[2-(2,4-dichlorophenyl)-2-(1H-1,2,4-triazol-1-ylmethyl)-1,3-dioxolan-4-yl]methoxy]phenyl]-1-piperazinyl]phenyl]-2,4-dihydro-2-(1-methylpropyl)-3H-1,2,4-triazol-3-one, reference compound], in series [2], the solubility in water entry is “only very sparingly soluble in water”. The “change of solubility with time” value in series [3] (measured period up to 120 minutes) is on record as “did not change over the measured period of time”.

`CCC(C)n1ncn(-c2ccc(N3CCN(c4ccc(OCC5COC(Cn6cncn6)(c6ccc(Cl)cc6Cl)O5)cc4)CC3)cc2)c1=O.O=S(=O)(O)c1ccccc1` (stereo not drawn) [cis-itraconazole benzensulfonate]: in series [1], the relative hygroscopicity entry was “hygroscopic (greater than 2% and less than 15% weight loss after incubation in 75% relative humidity at 25 °C for 8 hours)”.

In the case of `CCC(C)n1ncn(-c2ccc(N3CCN(c4ccc(OCC5COC(Cn6cncn6)(c6ccc(Cl)cc6Cl)O5)cc4)CC3)cc2)c1=O.O=C(O)C=CC(=O)O` (stereo not drawn) [cis-itraconazole fumaric acid co-crystal], in series [4], the “solid state form after incubation” value is reported as “did not change form”. For the same molecule, in series [1], the relative hygroscopicity result was “slightly hygroscopic (greater than 0.2% and less than 2% weight loss after incubation in 75% relative humidity at 25 °C for 8 hours)”. The “solubility relative to free base” value in series [3] (15 minutes) was “at least 4 fold”; in series [3] (4 hours) it was “approximately 1.5 fold”.

`CCC(C)n1ncn(-c2ccc(N3CCN(c4ccc(OCC5COC(Cn6cncn6)(c6ccc(Cl)cc6Cl)O5)cc4)CC3)cc2)c1=O.O=P(O)(O)O` (stereo not drawn) [cis-itraconazole phosphate]: the relative hygroscopicity result in series [1] was “slightly hygroscopic (greater than 0.2% and less than 2% weight loss after incubation in 75% relative humidity at 25 °C for 8 hours)”.

Consider `CCC(C)n1ncn(-c2ccc(N3CCN(c4ccc(OCC5COC(Cn6cncn6)(c6ccc(Cl)cc6Cl)O5)cc4)CC3)cc2)c1=O.O=S(=O)(O)O` (stereo not drawn) [cis-itraconazole sulfate], for which the “solubility in THF” value in series [5] is recorded as “insoluble or only slightly soluble in THF”. Besides, in series [1], the relative hygroscopicity result was “hygroscopic (greater than 2% and less than 15% weight loss after incubation in 75% relative humidity at 25 °C for 8 hours)”.

The values above are taken from patent US7446107B2, “Crystalline forms of conazoles and methods of making and using the same” (Transform Pharmaceuticals, Inc., priority 2002, dated 2008).
